A short description of data set [1]: Phase 1 open-label crossover drug-drug interaction study: pharmacokinetics of warfarin with or without ethyl eicosapentaenoate. To be noted: for AUC0-inf LSGM (least squares geometric mean) / Cmax LSGM (least squares geometric mean): W = warfarin (25 mg) administered alone; for effect of co-administration with ethyl eicosapentaenoate on Tmax: compared with Tmax when administered alone; for AUC0-inf / AUC0-last / Cmax / Tmax / Kel: plasma.
Source text: Twenty-five out of the twenty-six enrolled subjects completed the study. One enrolled subject withdrew consent and disconsinuted prematurely. […] On each of Day 8 through Day 35, all subjects received about 4 g of ethyl eicosapentaenoate (oral) as described herein.

Data set [2] concerns international normalized ratio (INR). In words: Phase 1 drug-drug interaction study: anticoagulation pharmacodynamics of warfarin (INR). Type of data set: in vivo, healthy subjects. Further details: AUCINR Mean (SD) / AUCINR Median / AUCINR LSGM: unit not given beside the values. The text has this:
Primary anticoagulation pharmacodynamic endpoints were maximum international normalized ratio (INRmax) and plasma international normalized ratio time curve (AUCINR).

[3] abbreviates: warfarin 25 mg + ethyl eicosapentaenoate 4 g.
[4] abbreviates: least squares geometric mean, mixed models.

As to `CC(=O)C[C@H](c1ccccc1)c1c(O)c2ccccc2oc1=O` [R-Warfarin, R-warfarin], in data set [1], the “AUC0-inf LSGM (least squares geometric mean)” value was 80,486 ng · h/mL, the “Cmax LSGM (least squares geometric mean)” value turned out to be 1659.6 ng/mL and the “effect of co-administration with ethyl eicosapentaenoate on Tmax” value was “did not significantly affect”. In data set [1] (oral warfarin 25 mg alone), the AUC0-inf is 82,620 (19,725) ng · h/mL; the AUC0-last is reported as 77,539 (17,374) ng · h/mL; the Cmax is reported as 1766 (673) ng/mL; the Tmax is listed as 1.0 (0.5, 9.0) h. In data set [1] (setting [3]), the AUC0-inf is reported as 82,460 (22,798) ng · h/mL, the AUC0-last is on record as 77,117 (19,505) ng · h/mL, the Cmax is given as 1865 (592) ng/mL and the Kel was 0.016 (0.005) 1/h. Moreover, the Tmax in data set [1] (setting [3]) was 1.0 (0.5, 1.5) h.
On to `CC(=O)C[C@@H](c1ccccc1)c1c(O)c2ccccc2oc1=O` [S-Warfarin, S-warfarin], for which, in data set [1], the “AUC0-inf LSGM (least squares geometric mean)” value is on record as 58,344 ng · h/mL, the “Cmax LSGM (least squares geometric mean)” value is given as 1715.9 ng/mL and the “effect of co-administration with ethyl eicosapentaenoate on Tmax” value is listed as “did not significantly affect”. In data set [1] (oral warfarin 25 mg alone), the AUC0-inf is recorded as 60,216 (15,009) ng · h/mL, the AUC0-last is reported as 59,253 (15,429) ng · h/mL, the Cmax is on record as 1836 (729) ng/mL and the Kel is recorded as 0.020 (0.005) 1/h. Further, in data set [1] (oral warfarin 25 mg alone), the Tmax is given as 1.0 (0.5, 9.0) h. In addition, in data set [1] (setting [3]), the AUC0-inf is 60,253 (16,204) ng · h/mL, the AUC0-last was 59,134 (16,451) ng · h/mL, the Cmax is on record as 1973 (616) ng/mL and the Kel was 0.020 (0.005) 1/h. In addition, the Tmax in data set [1] (setting [3]) is on record as 1.0 (0.5, 1.5) h.
Take `CC(=O)CC(c1ccccc1)c1c(O)c2ccccc2oc1=O` (stereo not drawn) [Warfarin, warfarin]: in data set [2] (in vivo), the “AUCINR, concomitant vs warfarin alone” value is reported as “similar” and the “INRmax, concomitant vs warfarin alone” value is recorded as “similar”. Further, in data set [2] (setting [4]), the “AUCINR LSGM” value is listed as 216.2 and the “INRmax LSGM” value is reported as 1.80. In data set [2] (p=0.026), the “Median time to INRmax (TINRmax), co-administered vs warfarin alone” value was “significantly lower”. Further, the “TINRmax Median” value in data set [2] (time to INRmax, warfarin 25 mg, EPA 4 g) is 48.0 h. In data set [2] (warfarin 25 mg, EPA 4 g), the “AUCINR Mean (SD)” value is listed as 217.8 (27.7), the “AUCINR Median” value was 213.4, the “INRmax Mean (SD)” value is 1.86 (0.48) and the “INRmax Median” value is on record as 1.74.
For `CC/C=C\C/C=C\C/C=C\C/C=C\C/C=C\CCCC(=O)OCC` [ethyl eicosapentaenoate, all-cis eicosa-5,8,11,14,17-pentaenoic acid ethyl ester], the “anticoagulation pharmacodynamic effects compared to warfarin alone” value in data set [2] (in vivo) was “did not have an effect”.

(Values after patent US20140249214A1 (AMARIN PHARMACEUTICALS IRELAND LIMITED, priority 2013, published 2014).)
